According to patent publication US8394952B2 (Vertex Pharmaceuticals Incorporated, priority 2006, dated 2013):
Where “and” joins values, the source holds several entries; their conditions need not be identical. Equal values may be shown once.

Biological target: Plk1 (Homo sapiens, UniProt P53350)
Assay: biochemical

Plk1, sequence (P53350 20-338): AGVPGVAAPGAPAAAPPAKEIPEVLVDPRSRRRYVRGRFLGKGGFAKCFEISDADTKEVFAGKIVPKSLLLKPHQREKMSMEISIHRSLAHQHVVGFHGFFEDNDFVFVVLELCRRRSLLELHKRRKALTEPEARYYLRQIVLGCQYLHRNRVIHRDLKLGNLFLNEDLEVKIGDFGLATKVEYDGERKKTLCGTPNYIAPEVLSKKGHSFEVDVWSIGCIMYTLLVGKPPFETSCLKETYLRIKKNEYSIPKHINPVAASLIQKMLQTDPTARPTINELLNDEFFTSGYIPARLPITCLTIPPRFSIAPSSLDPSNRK

Compound	Ki
COc1cc(C(=O)NCc2cccnc2)ccc1Nc1ncc2c(n1)N(C1CCCC1)CC(C)(C)C(=O)N2C [Compound I-202, 4-(9-cyclopentyl-5,7,7-trimethyl-6-oxo-6,7,8,9-tetrahydro-5H-pyrimido[4,5-b][1,4]diazepin-2-ylamino)-3-methoxy-N-(pyridin-3-ylmethyl)benzamide]	< 10 nM
CN1C(=O)C(C)(C)CN(C2CCCC2)c2nc(Nc3ccc(CN4CCOCC4)cc3)ncc21 [Compound I-86]	10 to 100 nM
COc1cc(C(=O)NC2CCN(CC(C)C)CC2)ccc1Nc1ncc2c(n1)N(C1CCCC1)CC(C)(C)C(=O)N2C [Compound I-70]	< 10 nM
CN1C(=O)C(C)(C)CN(C2CCCC2)c2nc(Nc3ccc4c(c3)C(=O)C(=O)N4)ncc21 [Compound I-139, 5-(9-Cyclopentyl-6,7,8,9-tetrahydro-5,7,7-trimethyl-6-oxo-5H-pyrimido[4,5-b][1,4]diazepin-2-ylamino)indoline-2,3-dione]	10 to 100 nM
CN1C(=O)C(C)(C)CN(C2CCCC2)c2nc(Nc3cccc(C(=O)N4CC(F)(C5CC5)C4)c3)ncc21 [Compound I-152, 9-Cyclopentyl-2-[3-(3-cyclopropyl-3-fluoro-azetidine-1-carbonyl)-phenylamino]-5,7,7-trimethyl-5,7,8,9-tetrahydro-pyrimido[4,5-b][1,4]diazepin-6-one]	10 to 100 nM
COc1cc(C(=O)NC[C@H](O)CO)ccc1Nc1ncc2c(n1)N(C1CCCC1)CC(C)(C)C(=O)N2C [Compound I-242, (S)-4-(9-cyclopentyl-5,7,7-trimethyl-6-oxo-6,7,8,9-tetrahydro-5H-pyrimido[4,5-b][1,4]diazepin-2-ylamino)-N-(2,3-dihydroxypropyl)-3-methoxybenzamide]	< 10 nM
COc1cc(C(=O)N[C@@H]2CCN(C)C2)ccc1Nc1ncc2c(n1)N(C1CCCC1)CC(C)(C)C(=O)N2C [Compound I-26, 4-(9-cyclopentyl-6,7,8,9-tetrahydro-5,7,7-trimethyl-6-oxo-5H-pyrimido[4,5-b][1,4]diazepin-2-ylamino)-3-methoxy-N—((R)-1-methylpyrrolidin-3-yl)benzamide]	< 10 nM
COc1cc(C(=O)NC2CCC2)ccc1Nc1ncc2c(n1)N(C1CCCC1)C[C@@H](C)C(=O)N2C [Compound I-186, (R)—N-cyclobutyl-4-(9-cyclopentyl-5,7-dimethyl-6-oxo-6,7,8,9-tetrahydro-5H-pyrimido[4,5-b][1,4]diazepin-2-ylamino)-3-methoxybenzamide]	< 10 nM
CN1C(=O)C(C)(C)CN(C2CCCC2)c2nc(Nc3ccc4c(c3)CCN4S(C)(=O)=O)ncc21 [Compound I-138, 9-Cyclopentyl-2-(1-methanesulfonyl-2,3-dihydro-1H-indol-5-ylamino)-5,7,7-trimethyl-5,7,8,9-tetrahydro-pyrimido[4,5-b][1,4]diazepin-6-one]	10 to 100 nM
CN1C(=O)C(C)(C)CN(C2CCCC2)c2nc(Nc3cccc4c3CNC4=O)ncc21 [Compound I-124, 2-(1-oxoisoindolin-4-ylamino)-9-cyclopentyl-8,9-dihydro-5,7,7-trimethyl-5H-pyrimido[4,5-b][1,4]diazepin-6(7H)-one]	10 to 100 nM
COc1cc(C(=O)N[C@@H]2C[C@H]2c2ccccc2)ccc1Nc1ncc2c(n1)N(C1CCCC1)CC(C)(C)C(=O)N2C [Compound I-225, 4-(9-cyclopentyl-5,7,7-trimethyl-6-oxo-6,7,8,9-tetrahydro-5H-pyrimido[4,5-b][1,4]diazepin-2-ylamino)-3-methoxy-N-((1R,2S)-2-phenylcyclopropyl)benzamide]	< 10 nM
COc1cc(C(=O)NC2CCN(C)CC2)ccc1Nc1ncc2c(n1)N(C1CCCC1)[C@H](C)CC(=O)N2C [Compound I-65, 4-((R)-9-cyclopentyl-6,7,8,9-tetrahydro-5,8-dimethyl-6-oxo-5H-pyrimido[4,5-b][1,4]diazepin-2-ylamino)-3-methoxy-N-(1-methylpiperidin-4-yl)benzamide]	10 to 100 nM
COc1cc(C(=O)Nc2cnccn2)ccc1Nc1ncc2c(n1)N(C1CCCC1)CC(C)(C)C(=O)N2C [Compound I-224, 4-(9-cyclopentyl-5,7,7-trimethyl-6-oxo-6,7,8,9-tetrahydro-5H-pyrimido[4,5-b][1,4]diazepin-2-ylamino)-3-methoxy-N-(pyrazin-2-yl)benzamide]	< 10 nM
CNC(=O)c1ccc(Nc2ncc3c(n2)N(c2cccc(Cl)c2)CC(C)(C)C(=O)N3C)c(OC)c1 [Compound I-161, 4-(9-(3-chlorophenyl)-6,7,8,9-tetrahydro-5,7,7-trimethyl-6-oxo-5H-pyrimido[4,5-b][1,4]diazepin-2-ylamino)-3-methoxy-N-methylbenzamide]	10 to 100 nM
COc1cc(C(=O)NC2CC2)ccc1Nc1ncc2c(n1)N(C1CCCC1)C[C@@H](C)C(=O)N2C [Compound I-184, (R)-4-(9-cyclopentyl-5,7-dimethyl-6-oxo-6,7,8,9-tetrahydro-5H-pyrimido[4,5-b][1,4]diazepin-2-ylamino)-N-cyclopropyl-3-methoxybenzamide]	< 10 nM
COc1cc(C(=O)NC(C)(C)C)ccc1Nc1ncc2c(n1)N(C1CCCC1)CC(C)(C)C(=O)N2C [Compound I-130, 4-(9-cyclopentyl-6,7,8,9-tetrahydro-5,7,7-trimethyl-6-oxo-5H-pyrimido[4,5-b][1,4]diazepin-2-ylamino)-N-tert-butyl-3-methoxybenzamide]	< 10 nM
CCOc1cc(C(=O)NC2CCN(C(C)C)CC2)ccc1Nc1ncc2c(n1)N(C1CCCC1)CC(C)(C)C(=O)N2C [Compound I-135, 4-(9-cyclopentyl-6,7,8,9-tetrahydro-5,7,7-trimethyl-6-oxo-5H-pyrimido[4,5-b][1,4]diazepin-2-ylamino)-3-ethoxy-N-(1-isopropylpiperidin-4-yl)benzamide]	< 10 nM
COc1cc(C(=O)NC2CCOCC2)ccc1Nc1ncc2c(n1)N(C1CCCC1)C[C@H](C)C(=O)N2C [Compound I-174, 4-((S)-9-cyclopentyl-6,7,8,9-tetrahydro-5,7-dimethyl-6-oxo-5H-pyrimido[4,5-b][1,4]diazepin-2-ylamino)-N-(tetrahydro-2H-pyran-4-yl)-3-methoxybenzamide]	< 10 nM
COc1cc(C(=O)NCCc2ccccc2)ccc1Nc1ncc2c(n1)N(C1CCCC1)CC(C)(C)C(=O)N2C [Compound I-203, 4-(9-cyclopentyl-5,7,7-trimethyl-6-oxo-6,7,8,9-tetrahydro-5H-pyrimido[4,5-b][1,4]diazepin-2-ylamino)-3-methoxy-N-phenethylbenzamide]	< 10 nM
COc1cc(C(=O)NC2(CO)CC2)ccc1Nc1ncc2c(n1)N(C1CCCC1)CC(C)(C)C(=O)N2C [Compound I-266]	< 10 nM
CNC(=O)c1ccc(Nc2ncc3c(n2)N(C2CCCC2)CC(C)(C)C(=O)N3C)c(OC)c1 [Compound I-16, 4-(9-cyclopentyl-6,7,8,9-tetrahydro-5,7,7-trimethyl-6-oxo-5H-pyrimido[4,5-b][1,4]diazepin-2-ylamino)-3-methoxy-N-methylbenzamide]	< 10 nM
COc1cc(C(=O)NC[C@@H]2CC[C@@H](O)C2)ccc1Nc1ncc2c(n1)N(C1CCCC1)CC(C)(C)C(=O)N2C [Compound I-259, 4-(9-cyclopentyl-5,7,7-trimethyl-6-oxo-6,7,8,9-tetrahydro-5H-pyrimido[4,5-b][1,4]diazepin-2-ylamino)-N-((1R,3R)-3-(hydroxycyclopentyl)methyl)-3-methoxybenzamide]	< 10 nM
COc1cc(C(=O)NC2CCCC2)ccc1Nc1ncc2c(n1)N(C1CCCC1)C[C@H](C)C(=O)N2C [Compound I-173, 4-((S)-9-cyclopentyl-6,7,8,9-tetrahydro-5,7-dimethyl-6-oxo-5H-pyrimido[4,5-b][1,4]diazepin-2-ylamino)-N-cyclopentyl-3-methoxybenzamide]	< 10 nM
CNC(=O)c1ccc(Nc2ncc3c(n2)N(CC2CNCCO2)CC(C)(C)C(=O)N3C)c(OC)c1 (stereo not drawn) [Compound I-192, 3-methoxy-N-methyl-4-(5,7,7-trimethyl-9-(morpholin-2-ylmethyl)-6-oxo-6,7,8,9-tetrahydro-5H-pyrimido[4,5-b][1,4]diazepin-2-ylamino)benzamide]	< 10 nM and 10 to 100 nM
CN1C(=O)C(C)(C)CN(C2CCCC2)c2nc(Nc3cccc(-c4cccnc4)c3)ncc21 [Compound I-153, 2-(3-(pyridin-3-yl)phenylamino)-9-cyclopentyl-8,9-dihydro-5,7,7-trimethyl-5H-pyrimido[4,5-b][1,4]diazepin-6(7H)-one]	10 to 100 nM
CN1C(=O)CCN(C2CCCC2)c2nc(Nc3ccc(C(=O)O)cc3)ncc21 [Compound I-3, 4-(9-Cyclopentyl-6,7,8,9-tetrahydro-5-methyl-6-oxo-5H-pyrimido[4,5-b][1,4]diazepin-2-ylamino)-benzoic acid]	10 to 100 nM
CNC(=O)c1ccc(Nc2ncc3c(n2)N([C@H]2CCOC2)CC(C)(C)C(=O)N3C)c(OC)c1 [Compound I-180, 4-(6,7,8,9-tetrahydro-9-((S)-tetrahydrofuran-3-yl)-5,7,7-trimethyl-6-oxo-5H-pyrimido[4,5-b][1,4]diazepin-2-ylamino)-3-methoxy-N-methylbenzamide]	< 10 nM
CNC(=O)c1ccc(Nc2ncc3c(n2)N(C2CCN(C)CC2)CC(C)(C)C(=O)N3C)c(OC)c1 [Compound I-97, 4-(6,7,8,9-tetrahydro-5,7,7-trimethyl-9-((R)-1-methylpiperidine-4-yl)-6-oxo-5H-pyrimido[4,5-b][1,4]diazepin-2-ylamino)-3-methoxy-N-methylbenzamide]	10 to 100 nM
COc1cc(C(=O)NCCN2CCCC2)ccc1Nc1ncc2c(n1)N(C1CCCC1)CC(C)(C)C(=O)N2C [Compound I-34, 4-(9-cyclopentyl-6,7,8,9-tetrahydro-5,7,7-trimethyl-6-oxo-5H-pyrimido[4,5-b][1,4]diazepin-2-ylamino)-3-methoxy-N-(2-(pyrrolidin-1-yl)ethyl)benzamide]	< 10 nM
COc1cc(C(=O)NCCOC(=O)N2CC[C@@H](F)C2)ccc1Nc1ncc2c(n1)N(C1CCCC1)CC(C)(C)C(=O)N2C [Compound I-39, (R)-3-Fluoro-pyrrolidine-1-carboxylic acid 2-[4-(9-cyclopentyl-5,7,7-trimethyl-6-oxo-6,7,8,9-tetrahydro-5H-pyrimido[4,5-b][1,4]diazepin-2-ylamino)-3-methoxybenzoylamino]-ethyl ester]	< 10 nM
